Measured values taken from patent US9884832B2 (priority 2011, dated 2018).

The compounds below were run against AM2 S31N (serine→asparagine mutation at residue 31 in the M2 protein) (Influenza A virus, UniProt P0DOF5, S31N). Conditions: not given.
Type: cell-based, influenza virus A/Udorn/72

Structure (SMILES)	S31N OOcyte Inhibition at 100 uM (%)
c1c[nH]c(CNC23CC4CC(CC(C4)C2)C3)c1 [Example 72a, Adamantan-1-yl-(1H-pyrrol-2-ylmethyl)-amine]	B (key: (A)=31-95%; (B)=0-30%)
Cc1ccc(-c2nc(CNC34CC5CC(CC(C5)C3)C4)no2)cc1 [Example 128a, N-((5-(p-tolyl)-1,2,4-oxadiazol-3-yl)methyl)adamantan-1-amine]	A (key: (A)=31-95%; (B)=0-30%)
COc1ccc(-c2cc(CNC34CC5CC(CC(C5)C3)C4)on2)cc1 [Example 122a, N-((3-(4-methoxyphenyl)isoxazol-5-yl)methyl)adamantan-1-amine]	A (key: (A)=31-95%; (B)=0-30%)
c1c(CNC23CC4CC(CC(C4)C2)C3)noc1C1CC1 [Example 107a, N-((5-cyclopropylisoxazol-3-yl)methyl)adamantan-1-amine]	A (key: (A)=31-95%; (B)=0-30%)
c1cn(-c2ccc(CNC34CC5CC(CC(C5)C3)C4)cc2)cn1 [Example 36a, N-(4-(1H-imidazol-1-yl)benzyl)adamantan-1-amine]	26.9%
c1cncc(-c2noc(CNC34CC5CC(CC(C5)C3)C4)n2)c1 [Example 135a, Adamantan-1-yl-(3-pyridin-3-yl-[1,2,4]oxadiazol-5-ylmethyl)-amine]	A (key: (A)=31-95%; (B)=0-30%)
c1cc(-c2cc(CNC34CC5CC(CC(C5)C3)C4)no2)cs1 [Example 150a, Adamantan-1-yl-(5-thiophen-3-yl-isoxazol-3-ylmethyl)-amine]	A (key: (A)=31-95%; (B)=0-30%)
c1csc(-c2cc(CNC34CC5CC(CC(C5)C3)C4)on2)c1 [Example 149a, N-((3-(thiophen-2-yl)isoxazol-5-yl)methyl)adamantan-1-amine]	A (key: (A)=31-95%; (B)=0-30%)
CC(C)c1nc(CNC23CC4CC(CC(C4)C2)C3)no1 [Example 102a, N-((5-isopropyl-1,2,4-oxadiazol-3-yl)methyl)adamantan-1-amine]	A (key: (A)=31-95%; (B)=0-30%)
FC(F)(F)c1cccc(-c2nc(CNC34CC5CC(CC(C5)C3)C4)no2)c1 [Example 125a, N-((5-(3-(trifluoromethyl)phenyl)-1,2,4-oxadiazol-3-yl)methyl)adamantan-1-amine]	A (key: (A)=31-95%; (B)=0-30%)
c1c(CNC23CC4CC(CC(C4)C2)C3)noc1CN1CCOCC1 [Example 106a, N-((5-(morpholinomethyl)isoxazol-3-yl)methyl)adamantan-1-amine]	B (key: (A)=31-95%; (B)=0-30%)
c1csc(-c2noc(CNC34CC5CC(CC(C5)C3)C4)n2)c1 [Example 148a, N-((3-(thiophen-2-yl)-1,2,4-oxadiazol-5-yl)methyl)adamantan-1-amine]	A (key: (A)=31-95%; (B)=0-30%)
c1cc2cn[nH]c2cc1CNC12CC3CC(CC(C3)C1)C2 [Example 43a, N-((1H-indazol-6-yl)methyl)adamantan-1-amine]	B (key: (A)=31-95%; (B)=0-30%)
c1csc(-c2ccc(CNC34CC5CC(CC(C5)C3)C4)cn2)c1 [Example 58a, N-((6-(thiophen-2-yl)pyridin-3-yl)methyl)adamantan-1-amine]	A (key: (A)=31-95%; (B)=0-30%)
Cc1ccc(CNC23CC4CC(CC(C4)C2)C3)o1 [Example 67a]	A (key: (A)=31-95%; (B)=0-30%)
Cc1cc(CNC23CC4CC(CC(C4)C2)C3)no1 [Example 95a, N-((5-methylisoxazol-3-yl)methyl)adamantan-1-amine]	A (key: (A)=31-95%; (B)=0-30%)
Clc1ccc(-c2cc(CNC34CC5CC(CC(C5)C3)C4)no2)cc1 [Example 119a, N-((5-(4-chlorophenyl)isoxazol-3-yl)methyl)adamantan-1-amine]	A (key: (A)=31-95%; (B)=0-30%)
FC(F)(F)c1ccc(-c2nc(CNC34CC5CC(CC(C5)C3)C4)no2)cc1 [Example 129a, N-((5-(4-(trifluoromethyl)phenyl)-1,2,4-oxadiazol-3-yl)methyl)adamantan-1-amine]	A (key: (A)=31-95%; (B)=0-30%)
CC(C)(C)c1nc(CNC23CC4CC(CC(C4)C2)C3)no1 [Example 103a, N-((5-(tert-butyl)-1,2,4-oxadiazol-3-yl)methyl)adamantan-1-amine]	A (key: (A)=31-95%; (B)=0-30%)
Oc1cc(-c2cccs2)ccc1CNC12CC3CC(CC(C3)C1)C2 [Example 49a]	B (key: (A)=31-95%; (B)=0-30%)
OC12CC3CC(C1)CC(NCc1cc4sccc4s1)(C3)C2 [Example 192a, 3-[(Thieno[3,2-b]thiophen-2-ylmethyl)-amino]-adamantan-1-ol]	A (key: (A)=31-95%; (B)=0-30%)

Same assay, conditions: pH 5.5

Structure (SMILES)	S31N OOcyte Inhibition at 100 uM (%)
COc1ccc(-c2cc(CNC34CC5CC(CC(C5)C3)C4)no2)c(OC)c1 [Example 41b, N-((5-(2,4-dimethoxyphenyl)isoxazol-3-yl)methyl)adamantan-1-amine]	A (key: (A)=31-95%; (B)=0-30%)
CSc1ccc(-c2cc(CNCC34CC5CC(CC(C5)C3)C4)no2)cc1 [Example 40b, 1-((3r,5r,7r)-adamantan-1-yl)-N-((5-(4-(methylthio)phenyl)isoxazol-3-yl)methyl)methanamine]	A (key: (A)=31-95%; (B)=0-30%)
CSc1ccc(-c2cc(CNC34CC5CC(CC3C5)C4)no2)cc1 [Example 90b, (2R,3as,5S,6as)-N-((5-(4-(methylthio)phenyl)isoxazol-3-yl)methyl)octahydro-2,5-methanopentalen-3a-amine]	A (key: (A)=31-95%; (B)=0-30%)
c1nc(N2CCCCC2)ncc1CNC12CC3CC(CC(C3)C1)C2 [Example 58b, N-((2-(piperidin-1-yl)pyrimidin-5-yl)methyl)adamantan-1-amine]	A (key: (A)=31-95%; (B)=0-30%)
CSc1ccc(-c2cc(CNC34CC5CCC(CC(C5)C3)C4)no2)cc1 [Example 91b, (1S,3R,8S)—N-((5-(4-(methylthio)phenyl)isoxazol-3-yl)methyl)tricyclo[4.3.1.13,8]undecan-1-amine]	A (key: (A)=31-95%; (B)=0-30%)
c1cc2[nH]c(CNC34CC5CC(CC(C5)C3)C4)cc2o1 [Example 78b, Adamantan-1-yl-(4H-furo[3,2-b]pyrrol-5-ylmethyl)-amine]	A (key: (A)=31-95%; (B)=0-30%)
Cc1csc(CNC23CC4CC(CC(C4)C2)C3)n1 [Example 68b, Adamantan-1-yl-(4-methyl-thiazol-2-ylmethyl)-amine]	A (key: (A)=31-95%; (B)=0-30%)
Clc1ccccc1-c1nc(CNC23CC4CC(CC(C4)C2)C3)no1 [Example 31b, N-((5-(2-chlorophenyl)-1,2,4-oxadiazol-3-yl)methyl)adamantan-1-amine]	A (key: (A)=31-95%; (B)=0-30%)
COc1ccc(-c2nc(CNC34CC5CC(CC(C5)C3)C4)no2)c(OC)c1 [Example 34b, N-((5-(2,4-dimethoxyphenyl)-1,2,4-oxadiazol-3-yl)methyl)adamantan-1-amine]	A (key: (A)=31-95%; (B)=0-30%)
c1csc(-c2nc(CNC34CC5CC(CC(C5)C3)C4)cs2)c1 [Example 11b, N-((2-(thiophen-2-yl)thiazol-4-yl)methyl)adamantan-1-amine]	A (key: (A)=31-95%; (B)=0-30%)
Cc1ccc(-c2ccc(CNC34CC5CC(CC(C5)C3)C4)s2)o1 [Example 52b, N-((5-(5-Methylfuran-2-yl)thiophen-2-yl)methyl)adamantan-1-amine]	A (key: (A)=31-95%; (B)=0-30%)
COc1ccc(-c2noc(CNC34CC5CC(CC(C5)C3)C4)n2)cc1OC [Example 35b, N-((3-(3,4-dimethoxyphenyl)-1,2,4-oxadiazol-5-yl)methyl)adamantan-1-amine]	A (key: (A)=31-95%; (B)=0-30%)
OC12CC3CC(C1)CC(NCc1noc(-c4ccccc4)n1)(C3)C2 [Example 84b, (1s,3r,5R,7S)-3-(((5-phenyl-1,2,4-oxadiazol-3-yl)methyl)amino)adamantan-1-61]	A (key: (A)=31-95%; (B)=0-30%)
Clc1ncc(CNC23CC4CC(CC(C4)C2)C3)s1 [Example 13b, N-((2-chlorothiazol-5-yl)methyl)adamantan-1-amine]	B (key: (A)=31-95%; (B)=0-30%)
Clc1ccc(CNC23CC4CC(CC(C4)C2)C3)cc1 [Example 1b, N-(4-Chlorobenzyl)adamantan-1-amine]	A (key: (A)=31-95%; (B)=0-30%)
CC(C)(C)c1ncc(CNC23CC4CC(CC(C4)C2)C3)s1 [Example 20b, N-((2-(tert-butyl)thiazol-5-yl)methyl)adamantan-1-amine]	A (key: (A)=31-95%; (B)=0-30%)
Clc1nc(CNC23CC4CC(CC(C4)C2)C3)ns1 [Example 10b, N-((5-chloro-1,2,4-thiadiazol-3-yl)methyl)adamantan-1-amine]	A (key: (A)=31-95%; (B)=0-30%)
c1c(CNC23CC4CC(CC(C4)C2)C3)noc1C1CCCCC1 [Example 32b, N-((5-cyclohexylisoxazol-3-yl)methyl)adamantan-1-amine]	A (key: (A)=31-95%; (B)=0-30%)
Cc1csc(-c2ccc(CNC34CC5CC(CC(C5)C3)C4)s2)c1 [Example 51b, N-((4′-Methyl-[2,2′-bithiophen]-5-yl)methyl)adamantan-1-amine]	A (key: (A)=31-95%; (B)=0-30%)
c1nc(C2CCCCC2)ncc1CNC12CC3CC(CC(C3)C1)C2 [Example 61b, N-((2-cyclohexylpyrimidin-5-yl)methyl)adamantan-1-amine]	A (key: (A)=31-95%; (B)=0-30%)
CC(C)Cc1nc(CNC23CC4CC(CC(C4)C2)C3)no1 [Example 22b, N-((5-isobutyl-1,2,4-oxadiazol-3-yl)methyl)adamantan-1-amine]	A (key: (A)=31-95%; (B)=0-30%)
Oc1cc(F)ccc1CNC12CC3CC(CC(C3)C1)C2 [Example 6b]	A (key: (A)=31-95%; (B)=0-30%)
